Test results taken from patent publication US10251869B2, “Compositions and methods of inhibiting metallo-β-lactamases” (priority 2014, dated 2019).
Values after ≈ are worked out from the molar mass of the structure shown. Where two headings read alike, the source gives them in different places.

Experiments:
[1] = test system: E. coli DH10B pBCSK(−) producing R228Y variant; test: MIC by agar dilution, E. coli DH10B producing VIM-2 R228Y; format: cell-based; settings: Escherichia coli
Protocol: (§1) E. coli DH10B (Invitrogen, Carlsbad, Calif.) was used as a host strain for pBCSK (−) blaVIM-2, and to obtain a mutant library at position 228 by site-saturation mutagenesis, using the QuickChange XL Site-directed Mutagenesis Kit (Stratagene). Briefly, primers that capture all 19 variants at MBL position 228 were designed and PCR mutagenic reactions were conducted using pBCSK (−) blaVIM-2 as a template, and transformed into E. coli DH10B. Single colonies were selected for plasmid purification, and successful mutagenesis was verified by complete DNA sequencing.
(§2) The effect of Zn^2+ availability was also tested by agar dilution using MH supplemented with 250 μM ZnSO4 or 5 μM EDTA. Reported values are the mode of at least 3 biological replicates.

[2] = test system: E. coli DH10B pBCSK(−) producing R228Q variant; test: MIC by agar dilution, E. coli DH10B producing VIM-2 R228Q; format: cell-based; settings: Escherichia coli
Protocol: as §1, §2

[3] = test system: E. coli DH10B pBCSK(−) producing VIM-2 (228R); test: MIC by agar dilution, E. coli DH10B producing VIM-2; format: cell-based; settings: Escherichia coli, read-out: MIC
Source text: A forward primer containing the SacI restriction site and a reverse primer with the BamHI restriction site were used to amplify blaVIM-2 including the pET24a(+) ribosomal binding site, using plasmid pET-24a(+)-blaVIM-2 as template. The product was then subcloned into phagemid pBCSK (−) (Agilent (Santa Clara, Calif.)) using the above restriction sites, and thus placing the blaVIM-2 open reading frame under control of the lac promoter, to yield phagemid pBCSK (−) blaVIM-2.
as §1, §2

[4] = test system: E. coli DH10B pBCSK(−) producing R228P variant; test: MIC by agar dilution, E. coli DH10B producing VIM-2 R228P; format: cell-based; settings: Escherichia coli
Protocol: as §1, §2

[5] = test system: E. coli DH10B pBCSK(−) producing VIM-24 (R228L); test: MIC by agar dilution, E. coli DH10B producing VIM-24; format: cell-based; settings: Escherichia coli, read-out: MIC
Protocol: as §1, §2

[6] = test system: E. coli DH10B pBCSK(−) producing R228M variant; test: MIC by agar dilution, E. coli DH10B producing VIM-2 R228M; format: cell-based; settings: Escherichia coli
Protocol: as §1, §2

[7] = test system: E. coli DH10B pBCSK(−) producing R228K variant; test: MIC by agar dilution, E. coli DH10B producing VIM-2 R228K; format: cell-based; settings: Escherichia coli
Protocol: as §1, §2

[8] = test system: E. coli pBC SK(−); test: MIC by agar dilution, E. coli DH10B host with empty phagemid; format: cell-based; settings: Escherichia coli
Protocol: as §1, §2

[9] = molecular target: T1, VIM-24 (Escherichia coli, UniProt Q5U7L7, R205L); test: Steady-state kinetic parameters of substrate hydrolysis by VIM-24; format: biochemical; settings: pH 7.5, 25° C., average ± SD, triplicate
T1 construct: which corresponds to cleavage after residues 20 (plus an additional Met residue on the N-terminus); made in house; host or cells: E. coli BL21(DE3) pLys, plasmid pET-24a(+)-blaVIM-24-S21
Source text: (§3) Steady-state reactions were followed using an Agilent (Santa Clara, Calif.) 8453 Diode Array spectrophotometer as previously described. […] For ceftazidime and cefepime, a 0.2-cm path length quartz cuvette was used. A nonlinear leastsquares fit of the data (Henri Michaelis-Menten equation) using Enzfitter (Biosoft Corporation, Ferguson, Mo.) was employed to obtain the steady-state kinetic parameters Vmax and KM according to equation 1.
(§4) In this equation the observed first-order rate constant k=kcat/KM*[E].

[10] = molecular target: T1, VIM-24; test: BTZ inhibition kinetics of nitrocefin hydrolysis by VIM-24; format: biochemical; settings: for k−2: rate constant for breakdown of E*I; for k2: rate constant for formation of E*I
Source text: (§5) Analysis of BTZ inhibition kinetics. Models involving one, or two-step slow binding were considered to analyze BTZ inhibition of NFC hydrolysis by VIM-2 and VIM-24 (Scheme 1).
(§6) Here E represents the free enzyme, and I the free inhibitor, EI is the final enzyme-inhibitor complex for a single step slow binding mechanism, and E*I is the enzyme-inhibitor complex formed after conformational changes in a two-step slow binding mechanism. Therefore, the dissociation constant for the EI complex (Ki), also called the inhibitor constant, is defined as Ki=k−1/k1; the dissociation constant for the E*I complex (Ki′) is defined as Ki′=k−2/k2, and the overall dissociation constant for the two-step mechanism (Ki*) is defined as Ki*=Ki/(1+([…])).
(§7) The Ki for each inhibitor was determined by direct competition assays under steady-state conditions. The initial velocity was measured in the presence of a constant concentration of enzyme (3 nM for VIM-2 and 4 nM for VIM-24) with increasing concentrations of inhibitor (5-60 μM) against a fixed concentration (5 x KM) of the indicator substrate, NCF, as previously described (42-44). The reactions were started by addition of VIM-2 or VIM-24 to substrate or to mixtures of substrate and inhibitor. Data were linearized by plotting inverse initial steady-state velocities (1/v0) against inhibitor concentration (I). Ki (observed) was determined by dividing the value for the y intercept by the slope of the line. Ki determinations were corrected to account for the affinity of NCF for the β-lactamase according to equation 3.
(§8) Measurements of association rate constants for inhibitor binding were carried out at 25° C. in 10 mM HEPES at pH 7.5 supplemented with 200 mM NaCl, 50 μM […] and 50 μg/ml BSA, in the presence of several concentrations of each compound. Reactions were then initiated by the addition of β-lactamase (3 nM VIM-2 or 4 nM VIM-24) to a mixture of 50 μM NCF and each BTZ without pre-incubation. Inhibitor association rate constants were estimated from linear extrapolation of the observed rate constant for inhibition (kobs), which was obtained by fitting progress curves of NFC hydrolysis to Eq. 4:
(§9) As previously described, the linear dependence of kobs vs. [I] at limiting I concentration approximates second-order rate constant k2/Ki. The observed second-order rate constant also includes an adjustment for competition between inhibitor and substrate binding (Eq. 5).
(§10) Also, vs calculated from the progress curves of NCF hydrolysis for each concentration of inhibitor were used to determine Ki*, according to the relationship shown in equation 6 (5). The value reported is the mean of three velocities±SD.
(§11) To further test the time-dependent inhibition mechanism of inhibitor binding, assays using dilutions of pre-formed complexes were performed. For these experiments, 1 μM of enzyme was incubated with varying concentrations of the inhibitor which allowed for complete inactivation of the enzyme during the 5 min incubation at 25° C. The reactions were then diluted 2,000-fold in 10 mM HEPES at pH 7.5 supplemented with 200 mM NaCl, 50 μM […] and 50 μg/ml BSA, which contained 50 μM NCF. Reactivation of the enzyme based on NCF hydrolysis was monitored over time. Control reaction with the free enzyme was performed in the same fashion.

[11] = molecular target: T2, VIM-2 (Pseudomonas aeruginosa, UniProt Q9K2N0); test: BTZ inhibition kinetics of nitrocefin hydrolysis by VIM-2; format: biochemical, P. aeruginosa; settings: for k−2: rate constant for breakdown of E*I; for k2: rate constant for formation of E*I
T2 construct: made in house; host or cells: E. coli BL21(DE3) pLys, plasmid pET-24a(+)-blaVIM-2-S21
Source text: as §5, §6, §7, §8, §9, §10, §11

[12] = test system: VIM-24 producing K. pneumoniae; test: Imipenem MIC of clinical isolate, VIM-24 K. pneumoniae; format: cell-based; settings: Klebsiella pneumoniae
[13] = test system: VIM-2 producing P. aeruginosa; test: Imipenem MIC of clinical isolate, VIM-2 P. aeruginosa; format: cell-based
[14] = test system: O=C(Cc1cccs1)N[C@@H]1C(=O)N2C(C(=O)O)=C(/C=C/c3ccc([N+](=O)[O-])cc3[N+](=O)[O-])CS[C@H]12; test: Steady-state kinetic parameters of substrate hydrolysis by VIM-2; format: biochemical, P. aeruginosa; settings: other: VIM-2, pH 7.5, 25° C., average ± SD, triplicate
Source text: as §3, §4

[15] = test system: C[C@@H](O)[C@H]1C(=O)N2C(C(=O)O)=C(SCCN=CN)C[C@H]12; test: as above; format: biochemical, P. aeruginosa; settings: other: VIM-2, pH 7.5, 25° C., average ± SD, triplicate
Source text: as §3, §4

[16] = test system: CC(=O)OCC1=C(C(=O)O)N2C(=O)[C@@H](NC(=O)Cc3cccs3)[C@H]2SC1; test: as above; format: biochemical, P. aeruginosa; settings: other: VIM-2, pH 7.5, 25° C., average ± SD, triplicate
Source text: as §3, §4

[17] = initial complex EI, NCF as reporter substrate
[18] = overall dissociation constant of two-step mechanism (E*I)
[19] = MHA supplemented with 5 μM EDTA
[20] = MHA supplemented with 250 μM Zn2+

Compound	MIC ([1]; MHA)	MIC ([2]; MHA)	MIC ([3]; MHA)	MIC ([4]; MHA)	MIC ([5]; MHA)	MIC ([6]; MHA)	MIC ([7]; MHA)	MIC ([8]; MHA)	k2 [10]	Ki [11, 17]	Ki [11, 18]	k−2 [11]	k2 [11]	other results
CC1(C)S[C@@H]2[C@H](NC(=O)[C@H](N)c3ccccc3)C(=O)N2[C@H]1C(=O)O [Ampicillin]	1020 µg/mL (≈ 2930 µM)	1020 µg/mL (≈ 2930 µM)	512 µg/mL (≈ 1470 µM)	32 µg/mL (≈ 91.6 µM)	512 µg/mL (≈ 1470 µM)	1020 µg/mL (≈ 2930 µM)	32 µg/mL (≈ 91.6 µM)	4 µg/mL (≈ 11.4 µM)						
CO/N=C(\C(=O)N[C@@H]1C(=O)N2C(C(=O)O)=C(COC(C)=O)CS[C@H]12)c1csc(N)n1 [Cefotaxime]	16 µg/mL (≈ 35.1 µM)	32 µg/mL (≈ 70.3 µM)	8 µg/mL (≈ 17.6 µM)	1 µg/mL (≈ 2.2 µM)	16 µg/mL (≈ 35.1 µM)	16 µg/mL (≈ 35.1 µM)	1 µg/mL (≈ 2.2 µM)	0.06 µg/mL (≈ 0.132 µM)						
CO/N=C(\C(=O)N[C@@H]1C(=O)N2C(C(=O)O)=C(CSc3nc(=O)c(=O)[nH]n3C)CS[C@H]12)c1csc(N)n1 [Ceftriaxone]	16 µg/mL (≈ 28.9 µM)	32 µg/mL (≈ 57.7 µM)	8 µg/mL (≈ 14.4 µM)	0.5 µg/mL (≈ 0.902 µM)	8 µg/mL (≈ 14.4 µM)	16 µg/mL (≈ 28.9 µM)	1 µg/mL (≈ 1.8 µM)	0.5 µg/mL (≈ 0.902 µM)						
CC(=O)OCC1=C(C(=O)O)N2C(=O)[C@@H](NC(=O)Cc3cccs3)[C@H]2SC1 [Cephalothin]		1020 µg/mL (≈ 2580 µM)		16 µg/mL (≈ 40.4 µM)			16 µg/mL (≈ 40.4 µM)	8 µg/mL (≈ 20.2 µM)						Kcat [9]: 150 ± 9 s⁻¹; Km [9]: 33 ± 5 µM
O=C(O)[C@H]1CS[C@@H]2CS[C@@H](CS)N12 [D-CS319]									0.07 ± 4 × 10^−3 s−1	5400 ± 400 nM	180 ± 20 nM	0.0003 ± 1 × 10^−4 s^−1	0.01 ± 1 × 10^−3 s^−1	k−2 [10]: 0.004 ± 1 × 10^−3 s^−1
CC1(C)SC2CSC(CS)N2C1C(=O)O [D-VC26]									0.01 ± 3 × 10^−3 s−1	14000 ± 1000 nM	100 ± 30 nM	0.0006 ± 4 × 10^−4 s^−1	0.09 ± 4 × 10^−3 s^−1	k−2 [10]: 0.00007 ± 1 × 10^−5 s^−1
C[C@@H](O)[C@H]1C(=O)N2C(C(=O)O)=C(SCCN=CN)C[C@H]12 [Imipenem]	1 µg/mL (≈ 3.34 µM)	4 µg/mL (≈ 13.4 µM)	0.5 µg/mL (≈ 1.67 µM)	0.5 µg/mL (≈ 1.67 µM)	0.5 µg/mL (≈ 1.67 µM)	2 µg/mL (≈ 6.68 µM)	0.25 µg/mL (≈ 0.835 µM)	0.25 µg/mL (≈ 0.835 µM)						MIC [1, 19]: 1 µg/mL (≈ 3.34 µM); MIC [1, 20]: 1 µg/mL (≈ 3.34 µM); MIC [2, 19]: 4 µg/mL (≈ 13.4 µM); MIC [2, 20]: > 4 µg/mL; MIC [3, 19]: 0.5 µg/mL (≈ 1.67 µM); MIC [3, 20]: 1 µg/mL (≈ 3.34 µM); MIC [4, 19]: ≤ 0.125 µg/mL; MIC [4, 20]: 0.25 µg/mL (≈ 0.835 µM); MIC ([12]; VIM-24 producing K. pneumoniae): 2 µg/mL; MIC ([12]; VIM-24 producing K. pneumoniae clinical isolate): 1 µg/mL; MIC [5, 19]: 0.5 µg/mL (≈ 1.67 µM); MIC [5, 20]: 1 µg/mL (≈ 3.34 µM); MIC [6, 19]: 1 µg/mL (≈ 3.34 µM); MIC [6, 20]: 4 µg/mL (≈ 13.4 µM); MIC [7, 19]: 0.25 µg/mL (≈ 0.835 µM); MIC [7, 20]: 0.25 µg/mL (≈ 0.835 µM); MIC [8, 19]: ≤ 0.125 µg/mL; MIC [8, 20]: 0.25 µg/mL (≈ 0.835 µM); MIC ([13]; Pseudomonas aeruginosa): 32 µg/mL; MIC ([13]; VIM-2 harboring P. aeruginosa clinical isolate): 32 µg/mL
CC1(C)SC2CSC(CS)N2C1C(=O)O [L-VC26]									0.04 ± 2 × 10^−3 s−1	3800 ± 200 nM	250 ± 10 nM	0.001 ± 1 × 10^−3 s^−1	0.02 ± 1 × 10^−3 s^−1	
O=C(Cc1cccs1)N[C@@H]1C(=O)N2C(C(=O)O)=C(/C=C/c3ccc([N+](=O)[O-])cc3[N+](=O)[O-])CS[C@H]12 [Nitrocefin]														Kcat [9]: 171 ± 4 s⁻¹; Km [9]: 11 ± 1 µM
VIM-2 (Pseudomonas aeruginosa)														Km [14]: 13 ± 1 µM; kcat [14]: 430 ± 20 s⁻¹; kcat/Km [14]: 3.3e+07 M⁻¹ s⁻¹; Km [15]: 12 ± 1 µM; kcat [15]: 45 ± 1 s⁻¹; kcat/Km [15]: 3.6e+06 M⁻¹ s⁻¹; Km [16]: 17 ± 2 µM; kcat [16]: 168 ± 8 s⁻¹; kcat/Km [16]: 9.8e+06 M⁻¹ s⁻¹
